Measured values published in patent US7572913B2, “4-substituted piperidine derivatives” (Bioaxone Therapeutique Inc., priority 2004, dated 2009).
“And” between values parts separate entries of the source, which are not always exact repeats. Equal entries are not always repeated. Where two headings read alike, the source gives them in different places.

Columns and labels:
[1] = patients treated for stroke; cited from earlier work
human plasma proteins = details: for Bound (%) / Unbound (%): equilibrium dialysis 24 h, 37° C.
Description: Plasma or serum protein binding assays using the equilibrium dialysis method are used to determine drug availability. Equilibrium dialysis studies using a 96-well microplate format or using conventional 2-chambered Teflon dialysis cells can be used to determine plasma or serum binding, and LC/MS/MS analysis is used for test compound quantification. The Teflon dialysis cell system is commonly used to determine the time to reach equilibrium, the fraction of a compound bound and unbound to plasma proteins and the effect of concentration on the extent of binding. Test compound quantification is performed by HPLC or LC/MS/MS analysis.
To perform equilibrium dialysis the following procedures can be used. To 0.990 mL of thawed plasma (37° C.), a 10 μL aliquot of the stock solutions is added for test compound concentrations of 35 μM. An appropriate volume of buffer (Dulbecco's phosphate buffered saline, pH 7.4) is spiked with each test compound at a concentration of 35 μM. Duplicate aliquots (130 μL) of each spiked plasma and buffer solution are collected prior to dialysis into labeled 1.5 mL polypropylene tubes and stored frozen at −40° C. […] Equilibrium dialysis is performed in a 96-well Teflon dialysis unit. Each well of the unit consists of two chambers separated by a vertically aligned dialysis membrane (regenerated cellulose) with a molecular weight cut-off of 12-14 KDa. The equilibrium dialysis membranes are first pre-soaked in deionized water for 30 min, then soaked in 20% ethanol for 20 min, followed by rinsing twice with deionized water. The equilibrium dialysis apparatus is assembled according to the manufacturer's directions. One chamber of each well is filled with 150 μL of blank buffer (to prevent membrane dehydration). Aliquots (150 μL) of spiked plasma or spiked buffer are added to the opposing chamber in each well. The top of the plate is sealed with an adhesive sealing film to prevent evaporation and to maintain constant pH during incubation. All dialysis experiments with the test compounds and standards are assessed using duplicate samples. The dialysis apparatus is incubated at 37° C. in an orbital shaker/incubator (Lab-Line Enviro) samples are collected following 24 hours of incubation. Samples containing the test compounds are stored frozen at −70° C. until analysis. Samples (100 μL) containing the radiolabels are added and mixed by vortex. The disintegrations per minute (dpm) in each vial are measured with a liquid scintillation counter. The fraction of each test compound and standard unbound (fu) to human serum proteins is calculated according to the following equation:
[formula] wherein Cbuffer and Cplasma represent the concentration of the compound measured in the buffer and plasma chambers, respectively, following dialysis. The fraction bound (fb) to the plasma proteins is determined as: 1−fu.

NG108 cells = assay: Bioassay of neurite outgrowth in NG108 cells on plastic; assay type: cell-based; details: compound at 35 micromolar
Description: (§1) Percent net neurite outgrowth at 35 micromolar concentrations are presented in Table 3 together with percent Rock inhibition at 10 micromolar for three compounds designated BA-1043, BA-1049, and BA-1050. […] It should be noted that percent Rock activity is equal to 100% minus percent Rock inhibition.

ROCKII = target: T1, ROCKII (Rattus norvegicus, UniProt Q62868); assay: ROCKII inhibition at a single concentration of 10 μM (selectivity histogram, Table 3); assay type: biochemical; details: for Percent Rock inhibition at 10 micromolar: Table 3, compound at 10 micromolar
T1 construct: purchased Upstate Ltd. (United Kingdom)
T1 sequence (Q62868 whole entry): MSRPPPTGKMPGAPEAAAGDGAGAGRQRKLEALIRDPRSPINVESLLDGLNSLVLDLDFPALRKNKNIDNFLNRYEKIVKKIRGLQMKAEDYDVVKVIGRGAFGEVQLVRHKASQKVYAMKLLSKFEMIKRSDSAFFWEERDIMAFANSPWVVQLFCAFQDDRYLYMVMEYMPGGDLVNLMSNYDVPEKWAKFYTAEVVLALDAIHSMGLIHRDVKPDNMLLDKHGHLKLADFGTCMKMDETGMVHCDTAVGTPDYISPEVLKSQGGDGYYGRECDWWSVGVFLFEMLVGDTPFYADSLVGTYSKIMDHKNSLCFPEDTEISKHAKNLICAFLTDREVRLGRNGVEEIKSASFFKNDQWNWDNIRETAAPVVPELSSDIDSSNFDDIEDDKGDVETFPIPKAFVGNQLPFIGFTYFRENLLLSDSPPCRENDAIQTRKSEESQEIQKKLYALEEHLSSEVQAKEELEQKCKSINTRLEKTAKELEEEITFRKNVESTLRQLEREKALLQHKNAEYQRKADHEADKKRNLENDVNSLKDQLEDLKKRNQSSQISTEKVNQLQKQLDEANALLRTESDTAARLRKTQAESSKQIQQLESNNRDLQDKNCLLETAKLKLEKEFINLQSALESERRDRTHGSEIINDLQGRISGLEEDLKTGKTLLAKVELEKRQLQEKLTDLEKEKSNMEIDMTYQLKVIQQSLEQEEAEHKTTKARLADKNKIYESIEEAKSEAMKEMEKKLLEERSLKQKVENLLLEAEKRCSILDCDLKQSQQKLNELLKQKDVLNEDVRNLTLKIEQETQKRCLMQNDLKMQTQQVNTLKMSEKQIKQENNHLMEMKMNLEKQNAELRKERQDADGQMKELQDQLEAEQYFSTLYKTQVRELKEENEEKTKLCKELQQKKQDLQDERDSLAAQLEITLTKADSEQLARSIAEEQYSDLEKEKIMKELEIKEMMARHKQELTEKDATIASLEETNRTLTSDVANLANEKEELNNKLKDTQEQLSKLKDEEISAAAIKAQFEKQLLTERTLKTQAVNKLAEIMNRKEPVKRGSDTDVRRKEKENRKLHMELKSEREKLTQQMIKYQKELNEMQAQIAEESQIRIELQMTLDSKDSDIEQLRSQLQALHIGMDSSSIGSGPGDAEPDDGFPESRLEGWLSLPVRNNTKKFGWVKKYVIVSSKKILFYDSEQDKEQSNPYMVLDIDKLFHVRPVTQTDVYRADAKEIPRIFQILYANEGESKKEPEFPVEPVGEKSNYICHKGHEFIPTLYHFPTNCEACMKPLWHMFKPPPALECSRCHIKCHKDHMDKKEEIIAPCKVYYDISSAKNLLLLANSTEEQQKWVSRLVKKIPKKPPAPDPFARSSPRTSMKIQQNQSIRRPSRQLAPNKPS
Protocol: Compounds of this invention can be evaluated for kinase inhibition activity as solutions in 100% DMSO at a concentration of 10 μM added to GSK3β(h) and to ROCK-II(r) with ATP present at a concentration of 100 μM. Samples of compounds of this invention can be tested at 10 μM.
The data can be presented as relative ROCK kinase inhibition at a reference compound concentration of 3.5 uM and at 35 μM, wherein 0 signifies complete inhibition under the ATP concentration tested (100 μM). ROCK kinase activity is the opposite of ROCK kinase inhibition, and is compared with the GSKB kinase activity.
(§2) Experiments were done in duplicate. ATP was present at 100 μM in the assay.
(§3) The values were expressed in a percentage of inhibition of each kinase. Experiments were done in duplicate. ATP was present at 100 μM in the assay.
as §1

HUVEC cells [2] = assay: Endothelial cell migration, Boyden chamber with VEGF; assay type: cell-based, human; details: 50 μM; 20 h; 10 ng/mL VEGF; fibronectin-coated transwells
Protocol: A common assay uses Boyden or Transwell chambers, a compartmentalized cell cultures system. Cells are plated in the upper compartment of the Transwell chamber, and the ability of a compound under evaluation to block cell migration through, for example the pores of a Fluoroblok membrane, to the bottom compartment is measured. […] Typically, a chemoattractant is added to the bottom well or compartment. In the case of endothelial cells, a useful chemoattractant is vascular endothelial growth factor (VEGF). […] Experiments can be performed in 24-well plates (individual insert or multiwell insert) or in 96-multiwell insert plates with appropriate correction for volume and cell density. […] Following incubation with the cell dye, fluorescence from invaded cells is read in a fluorescence plate reader with bottom reading capabilities at excitation/emission wavelengths of 485/530 nm without further manipulation. Only those labeled cells that have migrated through the pores of the Fluoroblok membrane will be detected.
The data may be expressed as either fluorescent units (FU) or as “fold migration”, i.e., the FU value of the cells migrating through the fibronectin coated insert membrane in response to a chemoattractant with inhibitor relative to the FU value of a control, i.e., without inhibitor. […]

HUVEC cells [3] = assay: HUVEC capillary tube formation on ECMatrix; assay type: cell-based, human; details: for relative amount of tube formation: 15,000 HUVEC cells on ECMatrix, 6-8 h
Description: HUVEC cells will form capillary tubes when plated on protein substrates composed of proteins found in the extracellular matrix. Typical substrates useful for experiments with HUVEC cells are Matrigel, fibronectin or collagen. Matrigel is composed of several proteins that make up the extracellular matrix. Extracelluar matrix substrates can be plated in tissue culture dishes as 3-dimensional cell culture substrates. Another reagent that can be used as a substrate is ECMatrix™ (Chemicon International, Temecula, Calif.), a reconstituted basement membrane matrix of proteins derived from the Engelbreth Holm-Swarm (EHS) mouse tumor. This substrate gels rapidly at 22-35° C. Thus, ECMatrix™ is thawed overnight on ice or in +4° C. A 96-well plate is pre-chilled, and 100μl of the ECMatrix solution is added to each well. The plate is incubated at 37° C. for at least one hour to allow the matrix solution to solidify. The HUVEC cells are harvested and resuspended in a standard cell growth media supplemented with endothelial cell growth supplements. The presence of serum (0.5-10%) is optional. EGM (endothelial cell growth media) can be used. The HUVEC cells are plated at a density of 5×10^3 to 1×10^4 cells per well onto the surface of the polymerized ECMatrix™, and then incubated overnight in a tissue-culture incubator. Cellular network structures are fully developed by 12 to 18 h, with the first signs apparent after 5-6 h. After 24 h, the cells begin to undergo apoptosis. To study the effect of anti-angiogenic factors, they can be added at the time of cell plating. Optional tissue culture vary depending on the cell type, age, and media growth conditions. The tubes are inspected under an inverted light microscope at 40×-200× magnification. Since there is a lack of contrast of the cellular networks, the cultures can be stained with any of the common cell staining procedures such as Diff-Quick or Wright-Giemsa or crystal-violet. The total capillary tube length measurement method is used to quantify the results. The total length of all the capillary tubes in several (3-10) view-fields is measured by Northern Eclipse software.
Photos are representative of 5 separate experiments.
Tranilast is used as a positive control. For this experiment, 15,000 HUVEC cells were plated on ECMatrix™ and incubated for 6-8 h alone before quantification. Results are presented as mean± SEM for one experiment analyzed in duplicate. […] It is used as a positive control.

Caco-2 cells = details: for B − A/A − B Papp ratio: Caco-2 monolayer
Protocol: After incubation, samples are taken from the apical and basolateral compartment and the concentration of the test compound is determined by LCMS (liquid chromatography/mass spectroscopy).
Stock cultures are sub-cultured every 7 days when cells have reached 80-90% confluency. Studies are conducted with Caco-2 cells, used between passage 21 to 40. Cells are plated on Transwell™ inserts at a density of 1×10^4 cells/well in 24-well culture plates. Cells are incubated at 37° C. under 5% CO2 atmosphere, and media (MEM Earles medium containing 10% FBS, 0.1 mM non-essential amino acids and 1 mM sodium pyruvate) are changed 3 times per week. Cells are used for permeability studies between 20 to 22 days after seeding. On the day of the assay, cell monolayers are washed 3 times. Each wash consists of aspirating liquid from the apical (A) and basolateral (B) sides, and adding 0.5 and 1 mL, respectively, of fresh Dulbecco's phosphate-buffered saline with Mg^2+ and Ca^2+, pH 7.4 (PBS). After the final wash, a volt-ohm-meter is used to determine the trans-epithelial electrical resistance (TEER), a measure of the integrity of the monolayer. Cells are not be used if the TEER values are less than 200 ohms/cm^2. Working solutions of the test compounds are prepared in PBS. […] For each test compound and standard, apical to basolateral (A to B) and basolateral to apical (B to A) transport is measured. The final volume on the basolateral side is 1 mL; the final volume on the apical side is 0.3 mL. The test compound working solution or radiolabeled standard solution is added to the ‘donor’ side. Blank buffer is added to the ‘acceptor’ side. […] The permeability of each compound and control is measured by sampling 200μL of medium from the acceptor compartment at time zero and following 60 minutes of incubation. […] A 3 mL aliquot of liquid scintillant is added to the vials, and disintegrations per minute (dpm) are determined in a liquid scintillation counter. […] The permeability of Lucifer Yellow is measured by sampling 100 μL of medium from the basolateral compartment following 60 minutes of incubation. […]

ROCK-II(h) = ROCK-II(h) (Homo sapiens, UniProt O75116); details: for % Control (single replicate) / Activity (% Control): ATP 100 micromolar; for % Control (single replicate): individual replicates; for Activity (% Control): mean of duplicate
Sequence of ROCK-II(h) (O75116 whole entry): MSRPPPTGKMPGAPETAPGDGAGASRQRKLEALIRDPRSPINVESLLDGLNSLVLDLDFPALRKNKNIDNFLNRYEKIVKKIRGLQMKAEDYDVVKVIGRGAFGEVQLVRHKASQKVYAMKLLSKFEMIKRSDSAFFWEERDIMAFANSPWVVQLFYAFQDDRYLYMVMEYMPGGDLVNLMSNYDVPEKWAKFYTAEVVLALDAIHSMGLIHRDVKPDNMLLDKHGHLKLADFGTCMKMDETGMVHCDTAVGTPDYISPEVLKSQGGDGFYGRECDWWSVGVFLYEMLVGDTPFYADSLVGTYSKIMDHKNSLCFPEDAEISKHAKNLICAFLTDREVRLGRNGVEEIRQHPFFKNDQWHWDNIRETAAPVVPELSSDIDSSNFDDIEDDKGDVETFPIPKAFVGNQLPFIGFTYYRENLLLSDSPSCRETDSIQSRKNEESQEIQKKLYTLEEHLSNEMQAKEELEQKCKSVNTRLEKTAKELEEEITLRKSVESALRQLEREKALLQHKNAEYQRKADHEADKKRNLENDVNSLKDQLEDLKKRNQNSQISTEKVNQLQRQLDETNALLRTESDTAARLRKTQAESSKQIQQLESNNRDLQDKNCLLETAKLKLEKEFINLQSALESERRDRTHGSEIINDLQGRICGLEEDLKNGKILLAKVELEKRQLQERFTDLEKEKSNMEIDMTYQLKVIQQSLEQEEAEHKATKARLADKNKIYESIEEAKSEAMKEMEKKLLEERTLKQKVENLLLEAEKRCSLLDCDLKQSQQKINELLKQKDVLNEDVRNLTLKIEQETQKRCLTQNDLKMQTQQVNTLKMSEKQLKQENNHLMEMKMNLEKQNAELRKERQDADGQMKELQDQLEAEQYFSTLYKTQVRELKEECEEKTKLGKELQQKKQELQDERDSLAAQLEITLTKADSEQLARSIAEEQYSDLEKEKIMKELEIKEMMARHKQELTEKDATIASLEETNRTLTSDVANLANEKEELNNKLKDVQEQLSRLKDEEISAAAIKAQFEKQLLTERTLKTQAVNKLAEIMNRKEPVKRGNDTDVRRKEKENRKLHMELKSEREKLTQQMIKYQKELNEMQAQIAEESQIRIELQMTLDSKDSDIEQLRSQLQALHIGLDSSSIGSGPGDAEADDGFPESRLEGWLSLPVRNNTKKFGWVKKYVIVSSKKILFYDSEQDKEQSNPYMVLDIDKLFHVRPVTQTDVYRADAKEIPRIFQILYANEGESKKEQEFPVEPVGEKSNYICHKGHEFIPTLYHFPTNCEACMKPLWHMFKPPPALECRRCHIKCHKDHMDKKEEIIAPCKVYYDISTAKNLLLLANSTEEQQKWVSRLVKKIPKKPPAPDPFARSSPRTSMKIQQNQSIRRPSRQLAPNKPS
Protocol: ROCK II (purchased from Upstate, Lake Placid, N.Y.) activity is assayed in 20 mM MOPS, pH 7.2, 25 mM β-glycerophosphate, 5 mM EGTA, 1 mM sodium orthovanadate, 1 mM dithiothreitol with dephosphorylated myelin basic protein (MBP, 0.2 mg/ml) as substrate with or without addition of a reference Rho kinase inhibitor. Activity assay reactions are performed for 30 min at 30° C. in 50 μl volumes using radiolabeled [32P] ATP (from Perkin-Elmer). The concentrations of ATP and magnesium chloride are 100 μM and 75 mM respectively. Assay reactions are initiated by adding Mg2+/ATP to each reaction mixture and are terminated by spotting 40 μl of each reaction mixture onto phosphocellulose paper (P81 paper, Whatman), followed by washes in 0.75% phosphoric acid to remove ATP followed by drying. The spotted paper is placed in scintillation cocktail and counted to measure 32P incorporation. Radioactivity is measured using a scintillation counter. Percent activity for a particular concentration of inhibitor is calculated as 100*(a−b)/(c−b), where a=cpm (enzyme+inhibitor), b=cpm (autophosphorylation of substrate and kinase) and c=cpm (enzyme−inhibitor). A dose-response chart is prepared for each inhibitor compound evaluated, then an IC50 (inhibitor concentration at 50% inhibition) determination is made as a measure of the potency of the compound as an inhibitor of Rho kinase. A plot of the log of concentration of test inhibitor compound (x axis) and the percent inhibition of kinase activity (y axis) is prepared. […] Experiments are done in duplicate or triplicate. ROCK II and dephosphorylated myelin basic protein (MBP) can be purchased from Upstate (Lake Placid, N.Y.). ATP is from Boehringer Mannheim and [γ-32P] ATP is from Perkin-Elmer. ROCK-II(h) is human ROCK-II.
Kinase inhibitors frequently compete with ATP binding and are ATP-competitive. Drug concentration required for 50% inhibition (IC50) depends on the concentration of ATP used in the assays.
An IC50 value for a compound of this invention can be determined from a plot of concentration of compound of this invention versus kinase activity of ROCK-II(h). The IC50 value for a compound of this invention can be expressed in units of micromolar, nanomolar, picomolar, and the like.
In the table, the concentration of the rho kinase inhibitor is micromolar, CPM is counts per minute, and SD is standard deviation. The rho kinase inhibitor activity was tested in duplicate. In each case, the kinase activity is expressed as a percentage of that in control incubations. IC50 values were derived by PRISM at Upstate. ATP concentration was 100 micromolar.

PRK2 = PRK2 (Homo sapiens, UniProt Q16513); details: FIG. 5; compound at 10 μM; ATP 100 μM; duplicate
Sequence of PRK2 (Q16513 whole entry): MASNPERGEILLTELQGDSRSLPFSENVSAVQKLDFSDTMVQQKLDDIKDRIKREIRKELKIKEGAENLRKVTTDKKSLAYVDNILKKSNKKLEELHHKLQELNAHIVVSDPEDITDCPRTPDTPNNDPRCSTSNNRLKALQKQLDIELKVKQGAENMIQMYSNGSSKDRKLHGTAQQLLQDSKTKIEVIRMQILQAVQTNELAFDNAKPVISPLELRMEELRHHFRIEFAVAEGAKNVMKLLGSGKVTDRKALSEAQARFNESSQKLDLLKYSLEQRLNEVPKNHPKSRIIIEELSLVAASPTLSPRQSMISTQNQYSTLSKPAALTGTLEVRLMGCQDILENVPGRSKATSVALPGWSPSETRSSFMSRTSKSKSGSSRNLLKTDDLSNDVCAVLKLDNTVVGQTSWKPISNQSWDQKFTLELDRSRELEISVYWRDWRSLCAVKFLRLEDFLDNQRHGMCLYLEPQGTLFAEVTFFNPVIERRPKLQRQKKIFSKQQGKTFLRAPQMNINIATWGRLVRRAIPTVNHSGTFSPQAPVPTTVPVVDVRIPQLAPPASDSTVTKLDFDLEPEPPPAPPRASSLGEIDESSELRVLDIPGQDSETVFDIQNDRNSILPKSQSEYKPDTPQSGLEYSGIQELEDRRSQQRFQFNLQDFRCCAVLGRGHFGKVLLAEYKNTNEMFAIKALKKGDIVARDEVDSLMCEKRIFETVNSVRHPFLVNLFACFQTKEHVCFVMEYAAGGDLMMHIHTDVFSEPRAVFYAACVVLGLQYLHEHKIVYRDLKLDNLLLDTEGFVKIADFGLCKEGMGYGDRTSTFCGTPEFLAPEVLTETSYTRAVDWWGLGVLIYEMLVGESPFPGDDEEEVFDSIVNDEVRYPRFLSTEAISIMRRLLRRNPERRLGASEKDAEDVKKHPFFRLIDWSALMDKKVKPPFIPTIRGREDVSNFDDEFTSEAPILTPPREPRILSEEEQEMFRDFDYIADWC
Protocol: Samples can also be tested at 10 μM against CDK5/p35(h), JNK1α1(h), MAPK1(h), PKA(b), PKCα(h), PRK2(h), ROCK-II(r), […], PKBα(h), and Fyn(h) with ATP at 100 μM.
as §3

MSK1 = MSK1 (Homo sapiens, UniProt O75582); details: FIG. 5; compound at 10 μM; ATP 100 μM; duplicate
Protocol: as §3

[4] = tested on: Caki cells (human renal cancer line) subcutaneous tumors; details: 50 μL PBS with 40 μM E-23a injected into tumor every day for two weeks; 6 mice; vehicle control 304%
Protocol: An in vivo model to test anti-proliferative activity of test compounds is a subcutaneous (s.c.) tumor model. In this model, human cancer cells are seeded into mice by a subcutaneous injection. Typically immune-compromised mouse cell lines are used, such as CD-1 nude mice, to prevent a graft rejection response. The test compound is administered as a formulation in a pharmaceutically acceptable vehicle suitable for injection use, such as isotonic phosphate buffered saline (PBS), by injection into the tumor. Different dosing schedules can be tested and compared with mice receiving injection of vehicle control. Before implantation into an animal, tumor cells are expanded in their specific tissue culture medium. Medium is changed 2 to 3 times per week. […] The tumor growth is monitored twice a week. Tumor volume is determined with a digital caliper and calculated using the formula: width^2×length×0.5. The length is taken at the basis of the tumors between the two most distant points of the tumor mass, whereas the width is measured right-angled to the length. […] Tumor volume and animal body weight are recorded twice a week.
Caki cells, which are a human renal cancer line were grown in tissue culture. […] Tumors were evaluated after 2 weeks of treatment after the final injection.

ROCKI = ROCKI (Homo sapiens, UniProt Q13464); details: ATP 100 μM, duplicate
Sequence of ROCKI (Q13464 whole entry): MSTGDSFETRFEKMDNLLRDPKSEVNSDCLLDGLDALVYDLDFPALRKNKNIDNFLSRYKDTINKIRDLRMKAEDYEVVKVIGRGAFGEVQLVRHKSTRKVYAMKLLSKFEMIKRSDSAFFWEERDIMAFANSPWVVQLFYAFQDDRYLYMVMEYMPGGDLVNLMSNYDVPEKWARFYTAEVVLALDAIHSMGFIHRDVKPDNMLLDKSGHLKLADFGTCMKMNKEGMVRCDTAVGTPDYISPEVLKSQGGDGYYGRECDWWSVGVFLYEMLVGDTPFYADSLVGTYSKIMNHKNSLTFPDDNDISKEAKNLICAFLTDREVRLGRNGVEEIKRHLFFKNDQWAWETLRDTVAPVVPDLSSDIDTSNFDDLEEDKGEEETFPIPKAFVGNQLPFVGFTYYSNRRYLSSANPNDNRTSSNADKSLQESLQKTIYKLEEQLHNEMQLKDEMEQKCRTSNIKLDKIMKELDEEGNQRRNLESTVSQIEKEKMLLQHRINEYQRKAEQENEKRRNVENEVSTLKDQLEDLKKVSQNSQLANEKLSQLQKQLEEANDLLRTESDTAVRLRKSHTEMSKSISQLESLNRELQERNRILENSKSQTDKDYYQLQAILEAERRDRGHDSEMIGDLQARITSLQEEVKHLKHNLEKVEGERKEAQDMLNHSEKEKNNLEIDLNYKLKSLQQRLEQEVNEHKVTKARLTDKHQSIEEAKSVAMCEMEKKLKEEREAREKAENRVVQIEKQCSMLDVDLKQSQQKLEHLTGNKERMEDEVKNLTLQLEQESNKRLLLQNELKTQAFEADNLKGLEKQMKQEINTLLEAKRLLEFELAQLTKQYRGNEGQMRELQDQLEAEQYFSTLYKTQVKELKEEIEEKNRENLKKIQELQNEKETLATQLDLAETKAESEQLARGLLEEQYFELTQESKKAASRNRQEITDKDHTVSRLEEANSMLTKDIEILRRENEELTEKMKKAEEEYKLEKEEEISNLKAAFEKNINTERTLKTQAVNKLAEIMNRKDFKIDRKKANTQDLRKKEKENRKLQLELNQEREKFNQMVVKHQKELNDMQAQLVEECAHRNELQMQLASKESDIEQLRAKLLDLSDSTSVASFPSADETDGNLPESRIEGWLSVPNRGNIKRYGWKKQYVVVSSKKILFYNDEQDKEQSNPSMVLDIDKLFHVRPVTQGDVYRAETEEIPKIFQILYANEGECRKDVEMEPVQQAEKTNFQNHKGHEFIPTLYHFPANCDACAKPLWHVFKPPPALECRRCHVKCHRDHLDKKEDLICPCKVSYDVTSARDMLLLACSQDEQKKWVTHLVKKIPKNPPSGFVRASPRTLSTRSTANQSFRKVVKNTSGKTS
Protocol: as §2, §3

HEC-1B cells = details: 72 hours incubation; different concentrations; Alamar Blue
Protocol: For this assay, cells are thawed and passaged at least one time before the experiment. Cells are grown in a culture dish in media supplemented with serum and supplements appropriate for the test cell line. When they reach logarithmic growth, the cells are trypsinized to detach them from the culture dish and are counted. The cell pellet is resuspended and adjusted to 2-5×10^4 cells/ml. A 96-well microplate is used for the experiment and cells are plated at a density of 1000 to 5000 cells/well in 100 μL of growth media. The seeding density is noted to ensure that the cells in the control wells are not overgrown after the total incubation time. […] At the end of the incubation period, the fluorescence intensity is read with a 96-well microplate reader (excitation 530-560 nm; emission 590 nm), with bottom reading. The fluorescence generated in the AlamarBlue™ assay can be stopped and stabilized by the addition of 3% SDS. […]
For each concentration of test article, a % growth is calculated using the following equation, wherein • T0=fluorescence units at the time of test article addition (time 0) • C=fluorescence units for control (no test article) • Ti=fluorescence unit for test article (different dilution)
Cadmium sulfate hydrate (CAD) was used as a positive control. Following treatment, the rate of proliferation was measured using the Alamar Blue assay.

In the case of `CC1=NN(c2ccccc2)C(=O)C1` [Radicut, 3-methyl-1-phenyl-2-pyrazoline-5-one], the “adverse effect in clinical use (in words)” value [1] is given as “kidney toxicity”.
With `CC(C)NC[C@H](O)COc1cccc2ccccc12` [(S)-Propranolol, reference compound] the “Bound (%)” value (human plasma proteins) was 91.3% and the “Unbound (%)” value (human plasma proteins) was 8.67%.
In the case of `CCCC(N)C1CCN(S(=O)(=O)c2cccc3cnccc23)CC1.Cl.Cl` (racemic) [BA-1050, (R,S)-N-(5″-isoquinolinesulfonyl)-4-[butan-1′-amino]piperidine dihydrochloride], the “Percent Net Neurite Outgrowth at 35 micromolar” value (“Percent Net Neurite Outgrowth” for short) (NG108 cells) is reported as 20.2% and the “Percent Rock inhibition at 10 micromolar” value (ROCKII) is reported as 79%.
For `COc1ccc(C=CC(=O)Nc2ccccc2C(=O)O)cc1OC` [Tranilast, N-(3′,4′-dimethoxycinnamoyl)anthranilic acid, reference compound], the “migration, % of the amount observed with Ctl+VEGF” value (HUVEC cells [2]) was “approximately 30%”, the “relative amount of tube formation” value (HUVEC cells [3]; 10 μg/mL) was “approximately 35 % relative to control” and the “relative amount of tube formation” value (HUVEC cells [3]; 50 μg/mL) was “approximately 30 % relative to control”.
In the case of `OC[C@@H](O)[C@@H](O)[C@H](O)[C@H](O)CO` [[^3H]-Mannitol, reference compound], the “B − A/A − B Papp ratio” value (Caco-2 cells) is reported as 0.81.
In the case of `CC(N)C1CCN(S(=O)(=O)c2cccc3cnccc23)CC1.Cl.Cl` (racemic) [E-23a, (R,S)-N-(5″-isoquinolinesulfonyl)-4-[ethan-1′-amino]piperidine dihydrochloride], the “availability in plasma (in words)” value (human plasma proteins; equilibrium dialysis) is reported as “relatively available in the unbound form”, the “Bound (%)” value (human plasma proteins) is reported as 7.26% and the “Unbound (%)” value (human plasma proteins) is reported as 92.7%. For the same molecule, the “B − A/A − B Papp ratio” value (Caco-2 cells) was 1.31, the “permeability (in words)” value (Caco-2 cells; Caco-2 permeability assay) was “good permeability” and the “Percent Net Neurite Outgrowth” value (NG108 cells) was 39.0%. For the same molecule, the “% Control (single replicate)” value (ROCK-II(h); BA-1049 0.01 μM, dihydrochloride) was 96 % Control and 104 % Control, the “Activity (% Control)” value (ROCK-II(h); BA-1049 0.01 μM) was 100 % Control and the “% Control (single replicate)” value (ROCK-II(h); BA-1049 0.03 μM, dihydrochloride) was 109 % Control and 86 % Control. The “Activity (% Control)” value (ROCK-II(h); BA-1049 0.03 μM) was 98 % Control, the “% Control (single replicate)” value (ROCK-II(h); BA-1049 0.1 μM, dihydrochloride) was 86 % Control and 102 % Control and the “Activity (% Control)” value (ROCK-II(h); BA-1049 0.1 μM) was 94 % Control. The “% Control (single replicate)” value (ROCK-II(h); BA-1049 0.3 μM, dihydrochloride) was 62 % Control and 74 % Control, the “Activity (% Control)” value (ROCK-II(h); BA-1049 0.3 μM) was 68 % Control and the “% Control (single replicate)” value (ROCK-II(h); BA-1049 1 μM, dihydrochloride) was 45 % Control and 50 % Control. The “Activity (% Control)” value (ROCK-II(h); BA-1049 1 μM) was 48 % Control, the “% Control (single replicate)” value (ROCK-II(h); BA-1049 3 μM, dihydrochloride) was 25 % Control and 27 % Control and the “Activity (% Control)” value (ROCK-II(h); BA-1049 3 μM) was 26 % Control. The “% Control (single replicate)” value (ROCK-II(h); BA-1049 10 μM, dihydrochloride) was 8 % Control and 16 % Control, the “Activity (% Control)” value (ROCK-II(h); BA-1049 10 μM) was 12 % Control and the “% Control (single replicate)” value (ROCK-II(h); BA-1049 30 μM) was 4 % Control. The “Activity (% Control)” value (ROCK-II(h); BA-1049 30 μM) was 4 % Control, the “% Control (single replicate)” value (ROCK-II(h); BA-1049 100 μM, dihydrochloride) was 0 % Control and 5 % Control and the “Activity (% Control)” value (ROCK-II(h); BA-1049 100 μM) was 3 % Control. For the same molecule, the IC50 (ROCK-II(h); read-out: IC50, inhibition of ROCK-II(h), ATP 100 μM, duplicate, derived by PRISM) was 0.791 µM, the “percentage of inhibition of PRK2” value (PRK2) was 52% and the “percentage of inhibition of MSK1” value (MSK1) was 43%. For the same molecule, the “migration, % of the amount observed with Ctl+VEGF” value (HUVEC cells [2]) was “approximately 40%”, the “mean tumor size increase, % of initial tumor volume” value [4] was “approximately 156 % of initial tumor volume” and the “percentage of inhibition of ROCKII” value (ROCKII; FIG. 5, compound at 10 μM, ATP 100 μM, duplicate) was 83%. For the same molecule, the “Percent Rock inhibition at 10 micromolar” value (ROCKII) was 97%, the “percentage of inhibition of ROCK I” value (ROCKI; FIG. 5, compound at 10 μM) was 31% and the IC50 (ROCKI; read-out: IC50, inhibition of ROCKI) was 20.6 µM. The “relative amount of tube formation” value (HUVEC cells [3]; 10 μM) was “approximately 40 % relative to control”, the “relative amount of tube formation” value (HUVEC cells [3]; 50 μM) was “approximately 35 % relative to control” and the “HUVEC tube formation relative to control (in words)” value (HUVEC cells [3]; E-23a 10 and 50 μM) was “substantially reduced”. The “proliferation of HEC-1B cells (in words)” value (HEC-1B cells) was “reduced proliferation”.
In the case of `CN(N)C1CCN(S(=O)(=O)c2cccc3cnccc23)CC1.Cl.Cl` [BA-1043, N-(5′″-isoquinolinesulfonyl)-4-[N′-(1′-methyl)hydrazino]piperidine dihydrochloride], the “Percent Net Neurite Outgrowth” value (NG108 cells) is reported as 15.2% and the “Percent Rock inhibition at 10 micromolar” value (ROCKII) is reported as 61%.
